Data as given in publication PMC9078972 (RSC Advances, 2018).
In brackets after ≈: the same amount, converted by molar mass.

Tests used:
[1] = tested on: Mycobacterium tuberculosis H37Ra; experiment: microbe, parasite or virus in culture; format: cell-based
[2] = Cytotoxicity against VERO cells; format: cell-based; settings: African green monkey, VERO cells (kidney epithelial cells)

SMILES | MIC [1] | CC50 [2]
COC(=O)c1ccc(C(=O)OC2CCN(c3nc(=O)c4cc(C(F)(F)F)cc([N+](=O)[O-])c4s3)CC2)cc1 [Compound 2n, Methyl (1-(8-nitro-4-oxo-6-(trifluoromethyl)-4H-benzo[e][1,3]thiazin-2-yl)-piperidin-4-yl) terephthalate] | 63 nM (≈ 33.9 ng/mL) | > 10 µM
O=C1OCCC1N1CCN(c2nc(=O)c3cc(C(F)(F)F)cc([N+](=O)[O-])c3s2)CC1 (stereo not drawn) [Compound 2f, 8-Nitro-2-(4-(2-oxotetrahydrofuran-3-yl)piperazin-1-yl)-6-(tri-fluoromethyl)-4H-benzo[e][1,3]thiazin-4-one] | 64 nM (≈ 28.4 ng/mL) | > 10 µM
O=c1nc(N2CCC(Oc3ccccn3)CC2)sc2c([N+](=O)[O-])cc(C(F)(F)F)cc12 [Compound 3k, 8-Nitro-2-(4-(pyridin-2-yloxy)piperidin-1-yl)-6-(trifluoro-methyl)-4H-benzo[e][1,3]thiazin-4-one] | 31 nM (≈ 14 ng/mL) | > 10 µM
O=c1nc(N2CCC(Oc3nccc(C(F)(F)F)n3)CC2)sc2c([N+](=O)[O-])cc(C(F)(F)F)cc12 [Compound 3n, 8-Nitro-6-(trifluoromethyl)-2-(4-((4-(trifluoromethyl)pyrimidin-2-yl)oxy)piperidin-1-yl)-4H-benzo[e][1,3]thiazin-4-one] | 4 nM (≈ 2.09 ng/mL) | –
CCOC(=O)C1CCN(c2nc(=O)c3cc(C(F)(F)F)cc([N+](=O)[O-])c3s2)CC1 [Compound 2a, Ethyl 1-(8-nitro-4-oxo-6-(trifluoromethyl)-4H-benzo[e][1,3]thiazin-2-yl)piperidine-4-carboxylate] | 8 nM (≈ 3.45 ng/mL) | > 10 µM
O=C(OC1CCN(c2nc(=O)c3cc(C(F)(F)F)cc([N+](=O)[O-])c3s2)CC1)c1ccc(F)cc1 [Compound 2h, 1-(8-Nitro-4-oxo-6-(trifluoromethyl)-4H-benzo[e][1,3]thiazin-2-yl)piperidin-4-yl 4-fluorobenzoate] | ≤ 2 nM | –
O=C(OC1CCN(c2nc(=O)c3cc(C(F)(F)F)cc([N+](=O)[O-])c3s2)CC1)c1ccccc1Cl [Compound 2j, 1-(8-Nitro-4-oxo-6-(trifluoromethyl)-4H-benzo[e][1,3]thiazin-2-yl)piperidin-4-yl 2-chlorobenzoate] | 8 nM (≈ 4.11 ng/mL) | > 10 µM
O=C(OC1CCN(c2nc(=O)c3cc(C(F)(F)F)cc([N+](=O)[O-])c3s2)CC1)c1ccccc1F [Compound 2i, 1-(8-Nitro-4-oxo-6-(trifluoromethyl)-4H-benzo[e][1,3]thiazin-2-yl)piperidin-4-yl 2-fluorobenzoate] | ≤ 2 nM | > 10 µM
CCCC1CC(N2CCN(c3nc(=O)c4cc(C(F)(F)F)cc([N+](=O)[O-])c4s3)CC2)C(=O)O1 (stereo not drawn) [Compound 2g, 8-Nitro-2-(4-(2-oxo-5-propyltetrahydrofuran-3-yl)piperazin-1-yl)-6-(trifluoromethyl)-4H-benzo[e][1,3]thiazin-4-one] | 16 nM (≈ 7.78 ng/mL) | > 10 µM
O=c1nc(N2CCC(Oc3ccc(OC(F)(F)F)cc3)CC2)sc2c([N+](=O)[O-])cc(C(F)(F)F)cc12 [Compound 3h, 8-Nitro-2-(4-(4-(trifluoromethoxy)phenoxy)piperidin-1-yl)-6-(trifluoromethyl)-4H-benzo[e][1,3]thiazin-4-one] | 8 nM (≈ 4.28 ng/mL) | > 10 µM
CCOC(=O)C(C)N1CCN(c2nc(=O)c3cc(C(F)(F)F)cc([N+](=O)[O-])c3s2)CC1 (stereo not drawn) [Compound 2d, Ethyl 2-(4-(8-nitro-4-oxo-6-(trifluoromethyl)-4H-benzo[e][1,3]thiazin-2-yl)-piperazin-1-yl)propanoate] | 8 nM (≈ 3.68 ng/mL) | –
O=c1nc(N2CCC(Oc3ccc(F)cc3)CC2)sc2c([N+](=O)[O-])cc(C(F)(F)F)cc12 [Compound 3b, 2-(4-(4-Fluorophenoxy)piperidin-1-yl)-8-nitro-6-(trifluoro-methyl)-4H-benzo[e][1,3]-thiazin-4-one] | 4 nM (≈ 1.88 ng/mL) | –
CCCCN1CCN(c2nc(=O)c3cc(C(F)(F)F)cc([N+](=O)[O-])c3s2)CC1=O [Compound 1d, 2-(4-Butyl-3-oxopiperazin-1-yl)-8-nitro-6-(trifluoromethyl)-4H-benzo[e][1,3]-thiazin-4-one] | – | > 10 µM
